These results are taken from publication PMC12562567, “Comparative Efficacy of CK2 Inhibitors CX-4945 and SGC-CK2-2 on CK2 Signaling” (International Journal of Molecular Sciences, 2025).

Data set [1] relates to phospho-Akt1 S129. As to the kind of experiment: Western blot of phospho-Akt1 S129 (CK2 substrate) in HeLa cells. In kind it is cell-based, human. Conditions: for IC50: Homo sapiens, read-out: IC50 pS129 AKT phosphorylation. An excerpt:
(§1) . These substrates were selected based on their different responses to kinase inhibition. S129Akt was described in 2015 as a specific CK2 substrate, and its phosphorylation is highly sensitive to CK2 inhibition showing a strong early reduction. On the contrary, S13-cdc37, described in 2004 as a CK2-specific substrate, requires higher inhibitor concentrations or longer exposure times to achieve a significant impact on its phosphorylation. The phosphorylation of both substrates is reduced in CK2-knockout cells. Moreover, to gain a more comprehensive view of CK2 substrate phosphorylation, we used a phosphoantibody developed against p-Ser/p-Thr containing a CK2 consensus sequence (pS/pTDXE motif).

Data set [2] deals with phospho-cdc37 S13. Put plainly: Western blot of phospho-cdc37 S13 (CK2 substrate) in HeLa cells. In kind it is cell-based, human. As to conditions: 24 h.
From the text: as §1
On the technique in general: Immunoblotting shows a protein as a band on a membrane.

In data set [3] the test system is phospho-Akt1 S129. As to the kind of experiment: Western blot of phospho-Akt1 S129 (CK2 substrate) in MDA-MB-231 cells. In kind it is cell-based. Conditions: for IC50: Homo sapiens, read-out: IC50 pS129 AKT phosphorylation. An excerpt: (§2) We repeated the same treatments using a different cell line, breast cancer MDA-MB-231. […] . Even though MDA-MB-231 was less responsive to the two CK2 inhibitors than HeLa cells, the overall outcome appeared similar. […] .

For data set [4], the system named is phospho-cdc37 S13. Put plainly: Western blot of phospho-cdc37 S13 (CK2 substrate) in MDA-MB-231 cells. In kind it is cell-based. As to conditions: Homo sapiens, read-out: IC50 pS13 cdc37 phosphorylation.
From the text: as §2

In a further data set the test system is HeLa cells. As to the kind of experiment: MTT cell viability assay, HeLa. In kind it is cell-based, human. As for the experimental part: (§3) One hour before the end of the incubations, 10 μL of MTT solution (5 mg/mL in PBS) was added to each well. […] Plates were read at λ 540 nm absorbance, in a Titertek Multiskan Plus plate reader (Flow Laboratories, Sutton, UK).
Background: Tetrazolium dyes change colour on reduction, which living cells bring about.

A further data set relates to MDA-MB-231 cells. Put plainly: MTT cell viability assay, MDA-MB-231. In kind it is cell-based. Conditions: for Effect on cell viability (reduction): MDA cells, 2.5 µM. As for the experimental part:
as §3

The test system of a further data set is CSNK2A1. Further details: method as in PMID 41883516. Conditions: cited from earlier work.
In data set [5] the test system is PARP-1. Put plainly: PARP-1 degradation/cleavage by Western blot, HeLa. Conditions: HeLa cells.
Details of data set [6]: method as in PMID 37901516. Conditions: 30 min of incubation; cited from earlier work.
The conditions of data set [7]: cited from earlier work.
The test system of data set [8] is PARP-1. As to the kind of experiment: PARP-1 degradation/cleavage by Western blot, MDA-MB-231. In kind it is cell-based. As to conditions: MDA-MB-231 cells.
On the set-up of data set [9]: method as in PMID 37077385. As to conditions: preliminary proliferation assays; cited from earlier work.
The mark [10] stands for this setting: MDA-MB-231 cells, 24 h, densitometry of Western blot.

Where two headings read alike, the source gives them in different places.

Turning to `O=C(O)c1ccc2c(c1)nc(Nc1cccc(Cl)c1)c1ccncc12` [CX-4945], the “Phosphorylation of Akt at Ser129” value in the data set on phospho-Akt1 S129 [1] (HeLa cells, 2.5 µM (lowest concentration tested), 24 h) is reported as “completely abolished”. For the same compound, the IC50 is 700 nM in the data set with phospho-Akt1 S129 [1] (HeLa cells, 24 h, densitometry of Western blot); 3 µM with phospho-cdc37 S13 [2] (Homo sapiens, HeLa cells, densitometry of Western blot, read-out: IC50 pS13 cdc37 phosphorylation); 900 nM with phospho-Akt1 S129 [3] (setting [10]); 4.4 µM in the data set on phospho-cdc37 S13 [4] (setting [10]). In addition, the “Effect on cell viability (reduction)” value was ~ 20% in the data set on HeLa cells (HeLa cells, 2.5 µM, 24 h, MTT); ~ 30% in the data set with HeLa cells (HeLa cells, 2.5 µM, 48 h, MTT); ~ 5% in the data set with MDA-MB-231 cells (24 h, MTT); ~ 15% in the data set on MDA-MB-231 cells (48 h, MTT). In addition, the “Significantly downregulated phosphopeptides determined to be CSNK2A1 dependent” value with CSNK2A1 (after 4 h of treatment) is recorded as 15%; in the data set on CSNK2A1 (after 24 h of treatment), 5%. Also, the “Concentration at which PARP-1 degradation (reduction in total PARP-1) is visible” value worked out at 10 µM in the data set on PARP-1 [5] (24 h) and 5 µM with PARP-1 [5] (48 h). Moreover, the “Concentration at which the 89 KDa PARP fragment is detected” value was 5 µM in the data set with PARP-1 [5] (after 48 h (first mention (so in the source))) and 2.5 µM with PARP-1 [5] (after 48 h (second mention)).
For the compound `CCC(=O)Nc1cc(Nc2cc(NC3CC3)n3ncc(C#N)c3n2)ccc1C` [SGC-CK2-1], the “Significantly downregulated phosphopeptides determined to be CSNK2A1 dependent” value in the data set with CSNK2A1 (after 4 h of treatment) and in the data set with CSNK2A1 (after 24 h of treatment) was 55% each time. For the same compound, the “Compound degraded in vitro in mouse liver microsomes” value in data set [6] was 60%. Also, the Aqueous solubility entry in data set [7] is recorded as “moderate”.
With `O=C(O)c1ccc2c(c1)nc(NCc1ccccc1)c1ncncc12` [SGC-CK2-2], the “Concentration that nearly abolishes Akt S129 phosphorylation” value in the data set with phospho-Akt1 S129 [1] (HeLa, 24 h treatment) amounted to 2.5 µM; in the data set with phospho-Akt1 S129 [3] (MDA, 24 h treatment), 5 µM. The IC50 is 2200 nM in the data set on phospho-Akt1 S129 [1] (HeLa, 24 h); 9 µM in the data set on phospho-cdc37 S13 [2] (Homo sapiens, HeLa, read-out: IC50 pS13 cdc37 phosphorylation, HeLa cells, 24 h, densitometry of Western blot); 9.9 µM in the data set on phospho-cdc37 S13 [2] (read-out: IC50 pS13 cdc37 phosphorylation, HeLa cells, densitometry of Western blot); 1300 nM in the data set on phospho-Akt1 S129 [3] (MDA-MB-231, 24 h); 20.4 µM in the data set with phospho-cdc37 S13 [4] (MDA-MB-231, 24 h). Moreover, the “Reduction in cell viability achieved” value in the data set with HeLa cells (HeLa cells, 24 h, all concentrations tested (up to 40 µM), MTT) was under 50%; in the data set on MDA-MB-231 cells (MDA-MB-231 cells, 24 h, all concentrations tested (up to 40 µM), MTT), under 50%. Moreover, the “Effect on cell viability” value in the data set with HeLa cells (HeLa, 2.5 µM, 24 h treatment) was “no significant effect”; in the data set with MDA-MB-231 cells (MDA, 5 µM, 24 h treatment), “no significant effect”. Moreover, in the data set with PARP-1 [8] (24 h, all concentrations tested), the “Degradation of PARP-1” value is on record as “did not induce any degradation”. The “Concentration giving significant PARP-1 degradation” value with PARP-1 [8] (48 h) is recorded as at least 20 µM. Moreover, the “Aqueous kinetic solubility relative to SGC-CK2-1” value in data set [7] was “markedly improved”. Besides, in data set [9], the Antiproliferative effects entry was “lacks antiproliferative effects”. For the same compound, the “Concentration at which PARP-1 degradation (reduction in total PARP-1) is visible” value in the data set with PARP-1 [5] (24 h) is reported as 40 µM; with PARP-1 [5] (48 h) it was 20 µM.

Broadly, the IC50 is the concentration needed to halve the response being measured.
